The assay addresses T1, Solute carrier family 12 member 5 (Homo sapiens, UniProt Q9H2X9).
T1 sequence (Q9H2X9 whole entry): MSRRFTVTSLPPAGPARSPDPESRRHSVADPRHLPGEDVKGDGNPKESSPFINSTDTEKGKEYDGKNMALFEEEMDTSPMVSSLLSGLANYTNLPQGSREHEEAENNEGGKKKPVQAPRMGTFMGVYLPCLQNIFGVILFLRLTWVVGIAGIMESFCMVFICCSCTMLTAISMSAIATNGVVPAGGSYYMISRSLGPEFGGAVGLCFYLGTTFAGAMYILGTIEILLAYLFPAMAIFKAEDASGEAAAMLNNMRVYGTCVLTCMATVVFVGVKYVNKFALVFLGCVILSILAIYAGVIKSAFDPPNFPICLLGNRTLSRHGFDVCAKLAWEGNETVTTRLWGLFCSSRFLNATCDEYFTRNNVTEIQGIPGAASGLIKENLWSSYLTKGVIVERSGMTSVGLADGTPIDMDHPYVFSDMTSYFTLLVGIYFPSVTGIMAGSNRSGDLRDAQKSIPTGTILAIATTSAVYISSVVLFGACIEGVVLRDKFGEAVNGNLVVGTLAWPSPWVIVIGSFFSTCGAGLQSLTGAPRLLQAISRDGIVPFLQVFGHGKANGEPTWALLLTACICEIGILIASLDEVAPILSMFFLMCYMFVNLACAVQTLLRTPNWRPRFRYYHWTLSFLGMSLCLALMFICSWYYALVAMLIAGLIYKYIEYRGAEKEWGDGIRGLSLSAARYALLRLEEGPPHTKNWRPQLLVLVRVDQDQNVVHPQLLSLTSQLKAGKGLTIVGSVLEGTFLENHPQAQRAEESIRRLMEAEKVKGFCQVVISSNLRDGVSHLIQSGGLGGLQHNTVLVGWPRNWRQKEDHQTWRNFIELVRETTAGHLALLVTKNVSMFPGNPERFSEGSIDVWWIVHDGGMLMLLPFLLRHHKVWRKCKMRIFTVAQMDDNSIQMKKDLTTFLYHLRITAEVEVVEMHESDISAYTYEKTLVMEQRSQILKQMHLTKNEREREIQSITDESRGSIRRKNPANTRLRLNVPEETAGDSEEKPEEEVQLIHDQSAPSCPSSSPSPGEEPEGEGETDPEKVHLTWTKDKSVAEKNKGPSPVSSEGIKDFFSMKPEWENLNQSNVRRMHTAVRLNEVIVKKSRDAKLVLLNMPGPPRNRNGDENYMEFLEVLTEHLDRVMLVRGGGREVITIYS
The assay can be described thus: KCC2 cotransport modulators, dose response, cell-based, assay 2 (AID 1723).

pEC50: −log10 of the molar value.

By pEC50 is commonly meant the EC50 on a negative log10 scale, so that one unit is a factor of ten. Low readings indicate a high EC50, high ones a low EC50. In turn, `Cc1[nH]n2c(=O)cc(C(C)C)nc2c1-c1ccccc1` showed a negative-log EC50 (pEC50) of 4.79.
Still for that read-out and setting: with `O=[N+]([O-])c1ccc(-c2cn(-c3ccccc3F)c(=S)[nH]2)cc1` the figure was 6.29; with `S=c1nc(-c2ccc3c(c2)CCO3)cc[nH]1`, 4.95; with `O=C1OC(c2ccc(O)cc2)(c2ccc(O)cc2)c2ccccc21`, 5.09.
Still for that read-out and setting: with `S=C(NCCc1ccccc1)NN=Cc1cccc(Cl)c1Cl` [1-[(2,3-dichlorobenzylidene)amino]-3-phenethyl-thiourea] the figure was 4.83; with `Fc1cccc(F)c1C=NNC(=S)Nc1cccnc1` [1-[(2,6-difluorobenzylidene)amino]-3-(3-pyridyl)thiourea], 4.60.
On the same count and under the same terms, with `NC(=S)NN=C1C(=O)N(Cc2ccc(F)cc2)c2ccccc21` [1-[(Z)-[1-[(4-fluorophenyl)methyl]-2-oxidanylidene-indol-3-ylidene]amino]thiourea] the figure was 5.24.
`Cc1ccc(-c2ccc(C=NNC(N)=S)o2)cc1` [1-[[5-(4-methylphenyl)furan-2-yl]methylideneamino]thiourea] showed a pEC50 (inactive by the depositor's call) of 4.33.
`O=C(NC(=S)Nc1nc(-c2cccc([N+](=O)[O-])c2)cs1)c1ccccc1Cl` [2-chloranyl-N-[[4-(3-nitrophenyl)-1,3-thiazol-2-yl]carbamothioyl]benzamide] gave a pEC50 of 4.13.
The same measure, in the same setting: with `COC(=O)c1sccc1NC(=S)OC` [3-(methoxycarbothioylamino)thiophene-2-carboxylic acid methyl ester] the figure was 5.61; with `CCOc1cccc(C(=O)NC(=S)Nc2cccc(C)c2)c1` [3-ethoxy-N-(m-tolylthiocarbamoyl)benzamide], 5.88; with `CCOc1[nH]n(-c2ccccc2)c(=O)c1C=Nc1ccc(F)cc1F` [(4E)-4-[[[2,4-bis(fluoranyl)phenyl]amino]methylidene]-5-ethoxy-2-phenyl-pyrazol-3-one], 3.01.
On the same count and under the same terms, with `Oc1ccccc1CN=Nc1nc2ccccc2o1` [(6E)-6-[(1,3-benzoxazol-2-ylhydrazo)methylidene]-1-cyclohexa-2,4-dienone] the figure was 4.31; with `Cc1nn(-c2nc3ccccc3[nH]2)c(N)c1-c1ccccc1` [MLS000063763], 5.85.
On to `Cc1cccc(N2CCN(C(=O)CCCn3c(=S)[nH]c4cc5c(cc4c3=O)OCO5)CC2)c1C` [MLS000095366], for which the pEC50 is 5.02.
On the same count and under the same terms, with `CC(C)c1ccc(OCC(=O)NNC(=O)c2cnccn2)cc1` [MLS000332605] the figure was 4.77; with `O=[N+]([O-])c1ccccc1C=C[CH+][N-]n1c(-c2ccc(Cl)cc2)n[nH]c1=S` [MLS000555506], 3.83; with `O=C(C=Cc1ccccc1)CC(=O)c1ccccc1O` [MLS000627068], 4.63.
Still for that read-out and setting: with `COc1cc(NC(=S)NC(=O)c2ccco2)ccc1NC(=O)C(C)C` [MLS000672338] the figure was 4.92.
Same read-out and setting: with `O=c1c2ccccc2[nH]c(=S)n1CCN1CCC(=C(c2ccc(F)cc2)c2ccc(F)cc2)CC1` [SMR000058550] the figure was 5.06.

For the origin of these results see BindingDB's records for doi:10.7270/Q2QV3JZ2 (Vanderbilt Screening Center for GPCRs, Ion Channels and …, 2009).
